Data from patent US9868737B2, “Pyridino[1,2-A]pyrimidone analogue used as MTOR/P13K inhibitor” (CISEN PHARMACEUTICAL CO., LTD., priority 2014, dated 2018).
Like-named read-outs stand apart in the source and are kept apart here. Each block holds one compound with its values, some of them ahead of it.

System: MCF-7 cells
Test: In vitro test of cell activity (MCF-7 cells, insulin stimulation, ELISA-One fluorescence)
Type: cell-based
Settings: Homo sapiens, MCF7, MCF-7 cells; for inhibition at 0.25 µM: conc. 0.25 μM; for inhibition at 0.5 µM: conc. 0.5 μM; for inhibition at 1 µM: conc. 1 μM
Protocol: Example In Vitro Tests of Cell Activities Experimental Steps and Methods:
1) MCF-7 cells were inoculated at the density of 2.5×10^4 cells/well into 96-well plates (the culture medium used should be a complete culture medium containing 10% FBS).
2) On the next day, the medium in each well was drawn out. A certain concentration (preliminary screening) or a series of concentration (IC50 test) of compounds were dissolved in a culture medium without serum and added to the 96-well plates to culture cells for 2 hours.
3) Insulin was dissolved in a culture medium without serum, added to the cultured cells and incubated for 30 minutes, wherein the final concentration of insulin was […].
4) A lysis solution was prepared according to the following method during the waiting period for the reaction:
a) Enhancer solution was removed from the refrigerator to melt in advance.
b) Enhancer solution was diluted 10 times with the 5× Lysis Buffer to give a concentrated lysis solution.
c) The concentrated lysis solution was diluted 5 times with double distilled water to give the lysis solution.
5) The medium in each well was completely removed and each well was quickly rinsed with PBS once.
6) 150 μl of the freshly prepared lysis solution was added to each well and shaked at room temperature for 10 minutes.
7) After confirming that all cells were detached, the lysis solution together with the cell fragments was transferred into a 1.5 ml tube.
8) The tube was shaked on vortes mixer to make the lysis solution and cells mix completely and then the mixture was centrifugated at 4° C. under 12000 g for 10 minutes.
9) The number of strips of ELISA-one micro-well plate that is required was calculated. The needless strips were removed from the frame, put back into the storage bag and sealed. Before the strips of micro-well plate were used, 200 μl of double distilled water was used to rinse each well to remove preservative.
10) 50 μl of antibody mixture was added to each well. (The antibody mixture solution was prepared by mixing the medium antibody reagent and the enzyme labeled antibody reagent with an equal proportion. The preparation of antibody mixture didn't need vortex.)
11) 25 μl of cell lysates was added to each well of ELISA-One micro-well plate. The micro-well plate was covered with adhesive sealing film and incubated on a micro-well plate oscillation instrument at room temperature for 1 hour.
12) Each well was rinsed with 150 μl of 1× rinsing buffer 3 times. After the last rinsing, the rinsing buffer in the well was completely removed. If necessary, the 1× rinsing buffer could be allowed to stay in the micro-well plate for up to 30 minutes so that the substrate mixed solution could be prepared during such time period.
13) The substrate mixed solution should be prepared just before each use, 10 μl of the substrate mixed solution was added to each well and the micro-well plate was sealed with tin-foil and incubated on the micro-well plate oscillation instrument at room temperature for 10 minutes.
14) 10 μl of stop solution was added to each well and mixed slightly (5-10 seconds) on the micro-well plate oscillation instrument.
15) The corresponding ELISA-One filter group was assembled and used to read the fluorescence signal intensity.

Structure (SMILES): COc1ncc(-c2ccc3ncc(-n4ccc(C)n4)c(=O)n3c2)cc1NS(=O)(=O)c1ccc(Cl)s1 [compound 217]
inhibition at 0.25 µM (read-out: % inhibition AKT): 54%
inhibition at 0.25 µM (read-out: % inhibition p70s6k): 67.7%

Structure (SMILES): COc1ncc(-c2ccc3ncc(Cl)c(=O)n3c2)cc1NS(=O)(=O)c1ccc(F)cc1C [compound 134]
inhibition at 0.5 µM (read-out: % inhibition AKT): 94.9%
inhibition at 0.5 µM (read-out: % inhibition p70s6k): 87.7%
IC50 (read-out: IC50 p-AKT): ≤ 50 nM
IC50 (read-out: IC50 p-p70S6K): 50 to 100 nM

Structure (SMILES): COc1ncc(-c2ccc3ncc(F)c(=O)n3c2)cc1NS(=O)(=O)c1cccc(F)c1 [compound 67]
inhibition at 0.5 µM (read-out: % inhibition AKT): 85.8%
inhibition at 0.5 µM (read-out: % inhibition p70s6k): 89.7%
IC50 (read-out: IC50 p-AKT): ≤ 50 nM
IC50 (read-out: IC50 p-p70S6K): ≤ 50 nM

Structure (SMILES): COc1ncc(-c2ccc3ncc(O)c(=O)n3c2)cc1NS(=O)(=O)c1ccccc1Cl [compound 102]
inhibition at 0.25 µM (read-out: % inhibition AKT): 37.3%
inhibition at 0.25 µM (read-out: % inhibition p70s6k): 18.2%

Structure (SMILES): COc1ncc(-c2ccc3ncc(Cl)c(=O)n3c2)cc1NS(=O)(=O)c1cnc(Cl)s1 [compound 160]
inhibition at 0.25 µM (read-out: % inhibition AKT): 61.9%
inhibition at 0.25 µM (read-out: % inhibition p70s6k): 71.6%

Structure (SMILES): Cc1ncc(-c2ccc3nccc(=O)n3c2)cc1NS(=O)(=O)c1ccccc1F [compound 10]
inhibition at 1 µM (read-out: % inhibition AKT): 81.9%
inhibition at 1 µM (read-out: % inhibition p70s6k): 27.8%

Structure (SMILES): COc1ncc(-c2ccc3nccc(=O)n3c2C)cc1NS(=O)(=O)c1c(F)cccc1F [compound 58]
inhibition at 0.5 µM (read-out: % inhibition AKT): 60.3%
inhibition at 0.5 µM (read-out: % inhibition p70s6k): 32.8%

Structure (SMILES): COCc1cnc2ccc(-c3cnc(OC)c(NS(=O)(=O)c4sc(C)nc4C)c3)cn2c1=O [compound 239, N-(2-methoxy-5-(3-(methoxymethyl)-4-oxo-4H-pyrido[1,2-a]pyrimidin-7-yl)pyridin-3-yl)-2,4-dimethylthiazolyl-5-sulfamide]
IC50 (read-out: IC50 p-AKT): ≤ 50 nM

Structure (SMILES): Cc1ncc(-c2ccc3nccc(=O)n3c2)cc1NS(=O)(=O)c1ccc(F)cc1 [compound 8]
inhibition at 1 µM (read-out: % inhibition AKT): 84.6%
inhibition at 1 µM (read-out: % inhibition p70s6k): 60.5%

Structure (SMILES): CCc1ncc(-c2ccc3nccc(=O)n3c2)cc1NS(=O)(=O)c1ccc(F)cc1F [compound 18]
inhibition at 1 µM (read-out: % inhibition AKT): 85.7%
inhibition at 1 µM (read-out: % inhibition p70s6k): 46.2%

Structure (SMILES): COc1ncc(-c2ccc3nccc(=O)n3c2C)cc1NS(=O)(=O)c1cccc(F)c1 [compound 53]
inhibition at 0.5 µM (read-out: % inhibition AKT): 68%
inhibition at 0.5 µM (read-out: % inhibition p70s6k): 40.9%

Structure (SMILES): COc1ncc(-c2ccc3ncc(OCCCF)c(=O)n3c2)cc1NS(=O)(=O)c1sc(C)nc1C [compound 201]
IC50 (read-out: IC50 p-AKT): ≤ 50 nM

Structure (SMILES): CNc1cnc2ccc(-c3cnc(OC)c(NS(=O)(=O)c4ccc(F)cc4F)c3)cn2c1=O [compound 95, 2,4-difluoro-N-(2-methoxy-5-(3-(methylamino)-4-oxo-4H-pyrido[1,2-a]pyrimidin-7-yl)pyridin-3-yl)benzulfamide]
IC50 (read-out: IC50 p-AKT): 100 to 250 nM

Structure (SMILES): COc1ncc(-c2ccc3nccc(=O)n3c2)cc1NS(=O)(=O)c1ccc(C)nc1 [compound 32]
inhibition at 0.5 µM (read-out: % inhibition AKT): 75.1%
inhibition at 0.5 µM (read-out: % inhibition p70s6k): 84.2%
IC50 (read-out: IC50 p-AKT): 100 to 250 nM
IC50 (read-out: IC50 p-p70S6K): 100 to 250 nM

Structure (SMILES): COc1ncc(-c2ccc3ncc(OCC4(C)COC4)c(=O)n3c2)cc1NS(=O)(=O)c1sc(C)nc1C [compound 197]
IC50 (read-out: IC50 p-AKT): ≤ 50 nM

Second part, led by results:

IC50 (read-out: IC50 p-AKT): ≤ 50 nM
Structure (SMILES): COc1ncc(-c2ccc3ncc(OCC4COC4)c(=O)n3c2)cc1NS(=O)(=O)c1sc(C)nc1C [compound 185]

IC50 (read-out: IC50 p-AKT): > 250 nM
Structure (SMILES): COc1ncc(-c2ccc3ncc(N(C)C)c(=O)n3c2)cc1NS(=O)(=O)c1ccc(F)cc1F [compound 96]

IC50 (read-out: IC50 p-AKT): 100 to 250 nM
IC50 (read-out: IC50 p-p70S6K): 50 to 100 nM
Structure (SMILES): COc1ncc(-c2ccc3ncc(Cl)c(=O)n3c2)cc1NS(=O)(=O)c1c(C)n[nH]c1C [compound 163]
inhibition at 0.25 µM (read-out: % inhibition AKT): 78.1%
inhibition at 0.25 µM (read-out: % inhibition p70s6k): 88.8%

IC50 (read-out: IC50 p-AKT): > 250 nM
Structure (SMILES): COCCOc1cnc2ccc(-c3cnc(OC)c(NS(=O)(=O)C4CCCCC4)c3)cn2c1=O [compound 212]

IC50 (read-out: IC50 p-AKT): 50 to 100 nM
IC50 (read-out: IC50 p-p70S6K): 50 to 100 nM
Structure (SMILES): COc1ncc(-c2ccc3ncc(Cl)c(=O)n3c2)cc1NS(=O)(=O)c1cc(F)cc(F)c1 [compound 147]
inhibition at 0.25 µM (read-out: % inhibition AKT): 80.3%
inhibition at 0.25 µM (read-out: % inhibition p70s6k): 81.3%

IC50 (read-out: IC50 p-AKT): ≤ 50 nM
Structure (SMILES): COc1ncc(-c2ccc3ncc(OCCOC(C)C)c(=O)n3c2)cc1NS(=O)(=O)c1sc(C)nc1C [compound 194]

IC50 (read-out: IC50 p-AKT): ≤ 50 nM
IC50 (read-out: IC50 p-p70S6K): 50 to 100 nM
Structure (SMILES): COc1ncc(-c2ccc3ncc(F)c(=O)n3c2)cc1NS(=O)(=O)c1ccc(C(F)(F)F)cc1 [compound 69]
inhibition at 0.5 µM (read-out: % inhibition AKT): 85.4%
inhibition at 0.5 µM (read-out: % inhibition p70s6k): 87.6%
